Data published in US20130254944A1, “Herbicide Tolerant Soybeans and Methods of Use” (PIONEER HI BRED INTERNATIONAL INC, priority 2012, published 2013).

Experiments:
Assay type in all cases: in vivo
[1] = tested on: soybean having the Als2 mutation; experiment: Greenhouse postemergence test of ALS-inhibiting herbicides, soybean with Als2 mutation; conditions: for Avg response (% phytotoxicity), Trait Als2: Table 2
Protocol: (§1) Soybean lines having wild type als1 & 2 genes, the Als1 mutation, the Als2 mutation, or both the Als1 and Als2 mutations were evaluated for their response to various herbicides. Two seeds from each line were planted into 4-inch pots containing Redi-Earth potting mix (Sun Gro Horticulture Canada Ltd. 52130 RR65, Seba Beach, Alberta TOE 2B0), with two replications planted for each treatment. Pots were placed in flats at 15 pots/flat, and the resulting plants were grown in a greenhouse environment supplemented with lighting (16 hr photoperiod) for the duration of the test. Selected herbicides representing the mode of action that inhibits the acetolactate synthase enzyme, also known as the acetohydroxyacid synthase enzyme, were applied postemergence to soybean when soybean plants were at the V2 growth stage, which is the stage at which the first two trifoliolate leaves were expanded.
(§2) Eleven active ingredients representing the five chemical families with herbicidal activity on the acetolactate synthase enzyme were tested. These herbicides can cause a phytotoxic response in wild type soybean plants. The five chemical families tested were sulfonylaminocarbonyltriazolinone (also known as triazolinone), imidazolinone, sulfonylurea, pyrimidinylthiobenzoate, and triazolopyrimidine. Application rates ranged from 0.5 times to eight times the currently labeled application rate for each active ingredient with spray application volume at 30 gallons/acre. The application rates tested were 0.5×, 1×, 2×, 4× and 8× the label rate for each herbicide. Herbicidal active ingredients were applied as formulated materials dispersed in water containing 0.25% nonionic surfactant (Trend® 90).
(§3) The test was evaluated by visually scoring plant phenotype 14 days after the herbicides were applied. Controls consisted of soybean plants of the same variety that received no herbicide treatments for each of all the varieties tested. Soybean response was recorded on a zero to 100 visual scale in which zero is no phytotoxic response and 100 is plant death fourteen days after the herbicides were applied. Soybean response (percent phytotoxicity) to postemergence applications of herbicides inhibiting the acetolactate synthase enzyme test results are shown in Table 1.
(§4) Results in Table 1 were evaluated using the isobole method for analyzing interactions. […] Here the biologically active agents that are being assessed for interaction (synergy) are gene mutations in soybean. The effectiveness of the genes in providing improved tolerance to ALS-inhibiting herbicides was assessed by applying increasing doses of herbicides to each soybean line with its mutation(s).
(§5) An isobole reduces a dose response surface in three dimensional space to a two dimensional plot by fixing a defined response level (e.g., 50% response). The isobole plot is a graph in the Cartesian plane with a straight line connecting the isoeffective rates of the individual components of the combination. This straight line represents expected responses for zero interactive combinations. The isoeffective rate used to create the isobole is often the EC50, the rate estimated to elicit 50% response, but other ECx values can be used. Since the isobole method is based on the potency of the components of the combination, an experimental design testing a range of rates expected to elicit the full range of responses (e.g., 0 to maximum response) is best. (Ferry et al. (2005) 2005 Conference on Applied Statistics in Agriculture Proceedings pp 33-50, Manhattan, Kans., Kansas State Univ.; Green and Streibig (1993) Herbicide Mixtures, pp 117-134 in Herbicide Bioassays, Streibig and Hudsk Eds, CRC, Boca Raton, Fla.).
(§6) Loglogistic dose response curves were fit to percent phytotoxicity response data using log 10 of dose (McCullagh and Nelder (1989) Generalized Linear Models, Chapman & Hall, London). Curves were fit using the logit link with normal errors. […]

[2] = tested on: soybean having the Als1 mutation; experiment: Greenhouse postemergence test of ALS-inhibiting herbicides, soybean with Als1 mutation; conditions: for Avg response (% phytotoxicity), Trait Als1: Table 2
Protocol: as §1, §2, §3, §4, §5, §6

[3] = tested on: wild type soybean; experiment: Greenhouse postemergence test of ALS-inhibiting herbicides, wild type soybean
Protocol: as §1, §2, §3

[4] = tested on: soybean having both the Als1 and Als2 mutations; experiment: Greenhouse postemergence test of ALS-inhibiting herbicides and isobole analysis, soybean with Als1 and Als2 mutations; conditions: for Avg response (% phytotoxicity), Trait Als1 + Als2: Table 2
Protocol: as §1, §2, §3, §4, §5, §6

[5] = 35 g ai/ha postemergence at V2, scored 14 days after application
[6] = 70 g ai/ha postemergence at V2, scored 14 days after application
[7] = 140 g ai/ha postemergence at V2, scored 14 days after application
[8] = 280 g ai/ha postemergence at V2, scored 14 days after application
[9] = 560 g ai/ha postemergence at V2, scored 14 days after application
[10] = 8.75 g ai/ha postemergence at V2, scored 14 days after application
[11] = 17.5 g ai/ha postemergence at V2, scored 14 days after application
[12] = rate of herbicide estimated to cause 10% phytotoxic response, loglogistic fit

With COc1cc(OC)nc(Sc2cccc(Cl)c2C(=O)O)n1 [Pyrithiobac sodium] the “Soybean response (percent phytotoxicity), Als2” value [1, 5] was 20%, the “Avg response (% phytotoxicity), Trait Als2” value ([1]; 35 g ai/ha) was 40% and the “Soybean response (percent phytotoxicity), Als2” value [1, 6] was 30%. The “Avg response (% phytotoxicity), Trait Als2” value ([1]; 70 g ai/ha) was 60%, the “Soybean response (percent phytotoxicity), Als2” value [1, 7] was 40% and the “Avg response (% phytotoxicity), Trait Als2” value ([1]; 140 g ai/ha) was 80%. The “Soybean response (percent phytotoxicity), Als2” value [1, 8] was 45%, the “Avg response (% phytotoxicity), Trait Als2” value ([1]; 280 g ai/ha) was 92.5% and the “Soybean response (percent phytotoxicity), Als2” value [1, 9] was 49%. For the same compound, the “Avg response (% phytotoxicity), Trait Als2” value ([1]; 560 g ai/ha) was 98%, the “Soybean response (percent phytotoxicity), Als1” value [2, 5] was 20% and the “Avg response (% phytotoxicity), Trait Als1” value ([2]; 35 g ai/ha) was 20%. For the same compound, the “Soybean response (percent phytotoxicity), Als1” value [2, 6] was 50%, the “Avg response (% phytotoxicity), Trait Als1” value ([2]; 70 g ai/ha) was 50% and the “Soybean response (percent phytotoxicity), Als1” value [2, 7] was 70%. For the same compound, the “Avg response (% phytotoxicity), Trait Als1” value ([2]; 140 g ai/ha) was 70%, the “Soybean response (percent phytotoxicity), Als1” value [2, 8] was 98% and the “Avg response (% phytotoxicity), Trait Als1” value ([2]; 280 g ai/ha) was 98%. For the same compound, the “Soybean response (percent phytotoxicity), Als1” value [2, 9] was 97%, the “Avg response (% phytotoxicity), Trait Als1” value ([2]; 560 g ai/ha) was 96.5% and the “Soybean response (percent phytotoxicity), Wild type” value [3, 5] was 70%. For the same compound, the “Soybean response (percent phytotoxicity), Wild type” value [3, 6] was 95%, the “Soybean response (percent phytotoxicity), Wild type” value [3, 7] was 98% and the “Soybean response (percent phytotoxicity), Wild type” value [3, 8] was 98%. The “Soybean response (percent phytotoxicity), Wild type” value [3, 9] was 98%, the “Soybean response (percent phytotoxicity), Als1 + Als2” value [4, 5] was 0% and the “Avg response (% phytotoxicity), Trait Als1 + Als2” value ([4]; 35 g ai/ha) was 0%. The “Soybean response (percent phytotoxicity), Als1 + Als2” value [4, 6] was 5%, the “Avg response (% phytotoxicity), Trait Als1 + Als2” value ([4]; 70 g ai/ha) was 5% and the “Soybean response (percent phytotoxicity), Als1 + Als2” value [4, 7] was 25%. For the same compound, the “Avg response (% phytotoxicity), Trait Als1 + Als2” value ([4]; 140 g ai/ha) was 25%, the “Soybean response (percent phytotoxicity), Als1 + Als2” value [4, 8] was 45% and the “Avg response (% phytotoxicity), Trait Als1 + Als2” value ([4]; 280 g ai/ha) was 45%. The “Soybean response (percent phytotoxicity), Als1 + Als2” value [4, 9] was 50% and the “Avg response (% phytotoxicity), Trait Als1 + Als2” value ([4]; 560 g ai/ha) was 50%.
With CCS(=O)(=O)c1cccnc1S(=O)(=O)NC(=O)Nc1nc(OC)cc(OC)n1 [Rimsulfuron] the “Soybean response (percent phytotoxicity), Als2” value [1, 10] was 0%, the “Avg response (% phytotoxicity), Trait Als2” value ([1]; 8.75 g ai/ha) was 0% and the “Soybean response (percent phytotoxicity), Als2” value [1, 11] was 0%. The “Avg response (% phytotoxicity), Trait Als2” value ([1]; 17.5 g ai/ha) was 0%, the “Soybean response (percent phytotoxicity), Als2” value [1, 5] was 20% and the “Avg response (% phytotoxicity), Trait Als2” value ([1]; 35 g ai/ha) was 20%. The “Soybean response (percent phytotoxicity), Als2” value [1, 6] was 60%, the “Avg response (% phytotoxicity), Trait Als2” value ([1]; 70 g ai/ha) was 60% and the “Soybean response (percent phytotoxicity), Als2” value [1, 7] was 80%. The “Avg response (% phytotoxicity), Trait Als2” value ([1]; 140 g ai/ha) was 80%, the “EC10, Als2” value [1, 12] was 23.88 g ai/ha and the “phytotoxicity (in words), soybean containing only the Als2 gene” value ([1]; the higher doses) was “substantial phytotoxicity”. For the same compound, the “Soybean response (percent phytotoxicity), Als1” value [2, 10] was 0%, the “Avg response (% phytotoxicity), Trait Als1” value ([2]; 8.75 g ai/ha) was 0% and the “Soybean response (percent phytotoxicity), Als1” value [2, 11] was 0%. For the same compound, the “Avg response (% phytotoxicity), Trait Als1” value ([2]; 17.5 g ai/ha) was 0%, the “Soybean response (percent phytotoxicity), Als1” value [2, 5] was 20% and the “Avg response (% phytotoxicity), Trait Als1” value ([2]; 35 g ai/ha) was 20%. The “Soybean response (percent phytotoxicity), Als1” value [2, 6] was 40%, the “Avg response (% phytotoxicity), Trait Als1” value ([2]; 70 g ai/ha) was 40% and the “Soybean response (percent phytotoxicity), Als1” value [2, 7] was 80%. For the same compound, the “Avg response (% phytotoxicity), Trait Als1” value ([2]; 140 g ai/ha) was 80%, the “EC10, Als1” value [2, 12] was 28.61 g ai/ha and the “phytotoxicity (in words), soybean containing only the Als1 gene” value ([2]; the higher doses) was “substantial phytotoxicity”. For the same compound, the “Soybean response (percent phytotoxicity), Wild type” value [3, 10] was 10%, the “Soybean response (percent phytotoxicity), Wild type” value [3, 11] was 35% and the “Soybean response (percent phytotoxicity), Wild type” value [3, 5] was 85%. The “Soybean response (percent phytotoxicity), Wild type” value [3, 6] was 95%, the “Soybean response (percent phytotoxicity), Wild type” value [3, 7] was 98% and the “Soybean response (percent phytotoxicity), Als1 + Als2” value [4, 10] was 0%. For the same compound, the “Avg response (% phytotoxicity), Trait Als1 + Als2” value ([4]; 8.75 g ai/ha) was 0%, the “Soybean response (percent phytotoxicity), Als1 + Als2” value [4, 11] was 0% and the “Avg response (% phytotoxicity), Trait Als1 + Als2” value ([4]; 17.5 g ai/ha) was 0%. The “Soybean response (percent phytotoxicity), Als1 + Als2” value [4, 5] was 0%, the “Avg response (% phytotoxicity), Trait Als1 + Als2” value ([4]; 35 g ai/ha) was 0% and the “Soybean response (percent phytotoxicity), Als1 + Als2” value [4, 6] was 10%. The “Avg response (% phytotoxicity), Trait Als1 + Als2” value ([4]; 70 g ai/ha) was 10%, the “Soybean response (percent phytotoxicity), Als1 + Als2” value [4, 7] was 10% and the “Avg response (% phytotoxicity), Trait Als1 + Als2” value ([4]; 140 g ai/ha) was 10%. For the same compound, the “EC10, Als1 + Als2” value [4, 12] was 123.22 g ai/ha and the “tolerance (in words), soybean containing both the Als1 and the Als2 genes” value ([4]; the higher doses) was “extremely tolerant”.
